Test results: PMC9369007 (International Journal of Molecular Sciences, 2022)

Key:
LSD1 demethylase = LSD1 demethylase (Homo sapiens, UniProt O60341); test: LSD1 demethylase inhibition assay
Method: The inhibition of LSD1 activity by our tested compounds was evaluated according to a previously reported procedure [65, 66, 67, 68] and as mentioned in the assay kit in Supplementary Materials.

HCT116 cells = test: MTT cytotoxicity assay, HCT116; conditions: Homo sapiens, HCT-116, 72 h, read-out: In Vitro Cytotoxicity IC50 HCT116
Method: (§4) The in vitro cytotoxic testing of novel derivatives was performed against different three cancer cell lines, HepG2, MCF-7, and HCT116, using standard MTT assay as previously reported [22, 62, 63, 64].

MCF-7 cells [1] = test: MTT cytotoxicity assay, MCF-7; conditions: Homo sapiens, MCF7, 72 h, read-out: In Vitro Cytotoxicity IC50 MCF-7
Method: as §4

HepG2 and MCF-7 cells = test: DNA fragmentation, diphenylamine test; format: cell-based, human; conditions: 24 h at IC50 value, untreated control about 4.7 ± 0.2%
Method: Apoptosis is characterized by DNA fragmentation, which occurs in all stages of the process. The percentage of fragmented DNA released into the cytoplasm from apoptotic nuclei was determined using a diphenylamine test.
DNA fragmentation was quantitatively determined using a diphenylamine (DPA) reagent according to the method of Boraschi and Maurizi.

HepG2 cells = test: MTT cytotoxicity assay, HepG2; conditions: Homo sapiens, HepG2, 72 h, read-out: In Vitro Cytotoxicity IC50 HepG2
Method: as §4

MCF-7 cells [2] = test: Cell cycle analysis by flow cytometry; format: cell-based, human; parameters: DNA Content %G0-G1 / DNA Content %S / DNA Content %G2-M / DNA Content %Pre G1: dose or concentration left out as unconfirmed; conditions: MCF-7, 24 h
Method: The cell cycle is a series of growth and development processes that culminate in DNA replication and cell division. G1 phase, S phase (synthesis), G2 phase, and M phase are the four different phases. We chose our promising chemical 27 based on the results of the MTT assay (Table 1) to further examine its effect on the apoptotic process and investigate its ability to play an active role in cell cycle progression in MCF-7 cells. MCF-7 cells were treated for 24 h with compound 27 at a concentration of […], and flow cytometry was performed in the presence of annexin V-FITC/PI.
(§1) Using the annexin V-FITC and PI apoptosis kit (eBioscience^TM, San Diego, CA, USA), the apoptosis detection was performed. MCF cells were plated onto a six-well plate at a 600,000 cells/mL density and then treated with compound 27 at […] after 24 h of incubation, and the assay was completed as previously described.
Cell cycle arrest and distribution was assessed, using the Propidium Iodide Flow Cytometry Kit (ab139418, Abcam, USA, CA, USA), followed by flow cytometry analysis according to the previous methodology.

hMAO-B = biological target: T1, hMAO-B (Homo sapiens, UniProt P27338); test: MAO activity screening, hMAO-B; format: biochemical; conditions: tyramine at 2 × KM (0.32 mM); two independent experiments
T1 sequence (P27338 1-520): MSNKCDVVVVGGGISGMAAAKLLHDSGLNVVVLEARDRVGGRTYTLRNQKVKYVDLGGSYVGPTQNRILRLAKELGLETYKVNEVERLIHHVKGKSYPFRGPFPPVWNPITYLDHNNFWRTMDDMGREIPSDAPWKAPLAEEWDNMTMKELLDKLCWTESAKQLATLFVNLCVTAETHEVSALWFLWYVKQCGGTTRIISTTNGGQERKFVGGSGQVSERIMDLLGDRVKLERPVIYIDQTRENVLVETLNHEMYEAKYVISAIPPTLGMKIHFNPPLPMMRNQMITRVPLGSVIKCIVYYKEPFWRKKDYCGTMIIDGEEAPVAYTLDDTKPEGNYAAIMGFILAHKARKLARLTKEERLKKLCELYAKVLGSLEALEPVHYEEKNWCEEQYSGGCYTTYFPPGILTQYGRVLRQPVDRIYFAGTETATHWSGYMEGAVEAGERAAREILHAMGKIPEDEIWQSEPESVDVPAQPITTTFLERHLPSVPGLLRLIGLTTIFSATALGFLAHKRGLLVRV
Method: (§2) Here, the potent selective compound 27 was screened for measuring target selectivity against high structural similar membrane-bound human hMAO-A and hMAO-B at 10 µM in the presence of tyramine at 2 × KM (0.8 mM for MAO-A and 0.32 mM for MAO-B) (Table 5).
(§3) The coupled assay approach was used to evaluate MAO activity in which the product, H2O2, acts with horseradish peroxidase to convert 10-acetyl-3,7-dihydroxyphenoxazine to the fluorescent resorufin. The percent inhibition was computed from the top and bottom of the resultant curve using the equation for a three-parameter curve in GraphPad Prism v. 4, (Graphstats, New York, NY, USA).

hMAO-A = biological target: T2, hMAO-A (Homo sapiens, UniProt P21397); test: MAO activity screening, hMAO-A; format: biochemical; conditions: tyramine at 2 × KM (0.8 mM); two independent experiments
T2 sequence (P21397 1-527): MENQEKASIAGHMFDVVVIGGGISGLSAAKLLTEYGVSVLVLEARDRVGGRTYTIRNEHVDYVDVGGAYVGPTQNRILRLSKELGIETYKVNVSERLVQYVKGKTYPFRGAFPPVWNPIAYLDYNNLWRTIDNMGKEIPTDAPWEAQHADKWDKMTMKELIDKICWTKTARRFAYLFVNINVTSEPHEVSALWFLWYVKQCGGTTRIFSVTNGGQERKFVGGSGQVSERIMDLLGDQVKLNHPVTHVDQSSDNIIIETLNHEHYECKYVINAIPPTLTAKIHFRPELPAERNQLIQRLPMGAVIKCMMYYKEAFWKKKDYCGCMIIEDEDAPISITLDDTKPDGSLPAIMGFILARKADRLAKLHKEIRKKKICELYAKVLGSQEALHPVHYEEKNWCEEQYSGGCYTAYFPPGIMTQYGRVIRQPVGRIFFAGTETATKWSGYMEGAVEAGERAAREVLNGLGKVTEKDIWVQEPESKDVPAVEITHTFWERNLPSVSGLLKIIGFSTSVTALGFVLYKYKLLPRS
Method: as §2, §3

in vitro = conditions: human, WI38 normal lung fibroblast cells
MCF-7 cells [3] = test: Annexin V-FITC/PI dual staining apoptosis assay; format: cell-based, human; conditions: MCF-7, 2.0 µM, 24 h
Method: This test used the breast MCF-7 cell line to assess the percentage of apoptosis caused by compound 27, in which MCF-7 cells were treated with compound 27 at 2.0 µM concentration for 24 h to measure the percentage of apoptosis induced by compound 27. […] These findings are in line with statistics derived from DNA content.
Each sample’s histogram was separated into four quadrants to show viable (lower left quadrant), necrotic (higher left quadrant), apoptotic (lower right quadrant), and necrotic/late apoptotic (upper right quadrant) cells. The Annexin V Apoptosis Detection Kit is based on the finding that apoptotic cells can transport phosphatidylserine (PS) from the plasma membrane’s inner surface to the cell surface. As a result, the presence of PS on the cell surface is regarded as an important technique for detecting apoptotic cells. PS can be easily detected by labeling with a fluorescent compound of annexin V, a protein with a high affinity for PS, and then analyzing the results by flow cytometry. When annexin V and PI staining are performed simultaneously, the kit can distinguish between apoptosis and necrosis. Only when the plasma membrane is completely damaged may PI enter the cell. This allows early apoptotic cells (negative for PI but positive for PS) to be distinguished from late apoptotic and necrotic cells (positive for both PI and PS). […] Cells were tested using annexin V and PI double-staining flow cytometry, which detect both PS residues and DNA, respectively, to validate the potential to trigger apoptosis. They were then cultured for 24 h before being examined. The tested compound was able to produce considerable levels of cell death in a dose-dependent manner, according to analyses of early and late apoptosis (Table 4, Figure 2 and Figure 3).
as §1
The MCF-7 cells were treated with tested compounds 27 for 24 h and stained with annexin V-FITC/PI to detect externalization of PS from cell membrane and analyze apoptotic and necrotic cell population as previously described.

[4] = LSD1 inhibitory IC50, Table 2, mean ± S.D., at least three tests

Row | Compound | melting point | IC50 (LSD1 demethylase; [4]) | IC50 (HCT116 cells) | IC50 (MCF-7 cells [1]) | Percentage of DNA fragmentation (HepG2 and MCF-7 cells) | IC50 (HepG2 cells) | Comment (cell cycle) (MCF-7 cells [2]) | DNA Content %G0-G1 (MCF-7 cells [2]) | DNA Content %G2-M (MCF-7 cells [2]) | DNA Content %Pre G1 (MCF-7 cells [2]) | DNA Content %S (MCF-7 cells [2]) | IC50 (hMAO-B) | IC50 (hMAO-A) | IC50 at 72 h (in vitro) | IC50 (LSD1 demethylase; LSD1 inhibition IC50, as quoted in the docking section) | Apoptosis Early (MCF-7 cells [3]) | Apoptosis Late (MCF-7 cells [3]) | Apoptosis Total (MCF-7 cells [3]) | Enhancement of late apoptosis compared with untreated cells (MCF-7 cells [3]) | Necrosis (MCF-7 cells [3])
1 | S=c1[nH]nc(-c2cc(-c3n[nH]c(=S)n3C3CCCCC3)cc(-c3n[nH]c(=S)n3C3CCCCC3)c2)n1C1CCCCC1 [Compound 20, 3,3′,3″-(benzene-1,3,5-triyl)tris(4-cyclohexyl-1H-1,2,4-triazole-5(4H)-thione)] | 251 to 252 °C | 0.137 ± 0.006 µM | 10.1 ± 0.37 µM | 13.7 ± 0.41 µM | approximately 28.5 ± 1.5% | 2.65 ± 0.69 µM |  |  |  |  |  |  |  |  |  |  |  |  |  | 
2 | C=CCNc1nnc(-c2cc(-c3nnc(NCC=C)s3)cc(-c3nnc(NCC=C)s3)c2)s1 [Compound 27, 5,5′,5″-(benzene-1,3,5-triyl)tris(N-allyl-1,3,4-thiadiazol-2-amine)] |  | 0.046 ± 0.003 µM | 10.3 ± 0.15 µM | 1.52 ± 1.02 µM | ~23 ± 1.2% | 24.7 ± 1.01 µM | pre G1 Apoptosis and cell cycle arrest at G2-M | 35.15% | 35.59% | 37.11% | 28.26% | > 100 µM | 87.1 ± 2.36 µM | > 85 µM | 0.0464 µM | 5.33% | 20.53% | 37.11% | 114 fold | 11.25%
